Data on 6 molecules can be found in ChEMBL document CHEMBL1152541, “Staurosporine tethered peptide ligands that target cAMP-dependent protein kinase (PKA): optimization and selectivity profiling” (Bioorg Med Chem, 2009).

*1 amine or outer side, *2 acyl side, *3 side chain or, on linkers, in order; H or OH if unused. Where a SMILES comes first, the peptide text is derived from it. Bridges are numbered along the chain shown (N, C = ends). The star is where a group is joined. Staurosporine = CO[C@@H]1[C@H](N(C)*)C[C@H]2O[C@]1(C)n1c3ccccc3c3c4c(c5c6ccccc6n2c5c31)C(=O)NC4; Suc = O=C(CCC(=O)[*:2])[*:1]; βAla = NCCC(=O)O

Test [1] is described as follows: Ratio of compound IC50 to bivalent ligand 1 IC50 for PKA.
Test [2] can be described thus: Noncompetitive inhibition of PKA assessed as [gamma-32P]ATP labeling of kemptide by liquid scintillation counting.
Test [3] in a line: Competitive inhibition of PKA assessed as [gamma-32P]ATP labeling of kemptide by liquid scintillation counting.
Test [4] in a line: Uncompetitive inhibition of PKA assessed as [gamma-32P]ATP labeling of kemptide by liquid scintillation counting.
A short description of test [5]: Mixed inhibition of PKA assessed as [gamma-32P]ATP labeling of kemptide by liquid scintillation counting.
Test [6] can be described thus: Ratio of inhibition of PKA in presence of DTT to inhibition of PKA in absence of DTT.

For `CC(C)[C@@H]1NC(=O)[C@H](CCCNC(=N)N)NC(=O)[C@H](Cc2ccccc2)NC(=O)[C@H](C(C)C)NC(=O)[C@@H](N)CSSC[C@@H](C(=O)NCC(N)=O)NC(=O)CNC(=O)[C@H](Cc2ccccc2)NC1=O` (HELM PEPTIDE1{C.V.F.R.V.F.G.C.G.[am]}$PEPTIDE1,PEPTIDE1,1:R3-8:R3$$$V2.0), the Ratio IC50 in test [1] was above 21000. In addition, in test [2], the Ki amounted to 85.6 µM and the Km was 13.3 µM.

`CO[C@@H]1[C@H](N(C)C(=O)CCC(=O)NCCCOCCCNC(=O)COCC(=O)N[C@H]2CSSC[C@@H](C(=O)NCC(N)=O)NC(=O)CNC(=O)[C@H](Cc3ccccc3)NC(=O)[C@H](C(C)C)NC(=O)[C@H](CCCNC(=N)N)NC(=O)[C@H](Cc3ccccc3)NC(=O)[C@H](C(C)C)NC2=O)C[C@H]2O[C@]1(C)n1c3ccccc3c3c4c(c5c6ccccc6n2c5c31)C(=O)NC4` (HELM PEPTIDE1{[CO[C@@H]1[C@H](N(C)C(=O)CCC(=O)NCCCOCCCNC(=O)COCC(=O)[*:2])C[C@H]2O[C@]1(C)n1c3ccccc3c3c4c(c5c6ccccc6n2c5c31)C(=O)NC4].C.V.F.R.V.F.G.C.G.[am]}$PEPTIDE1,PEPTIDE1,2:R3-9:R3$$$V2.0): the Ki in test [3] worked out at 10.1 µM; in test [2] it was 0.002 µM. Besides, the Km in test [2] was 12 µM; in test [4], 13.9 µM; in test [5], 11.2 µM.

Turning to `CO[C@@H]1[C@H](N(C)C(=O)CCC(=O)NCCC(=O)NCCC(=O)NCCC(=O)NCCC(=O)NCCC(=O)NCCC(=O)NCCC(=O)NCCC(=O)NCCC(=O)N[C@H]2CSSC[C@@H](C(=O)NCC(N)=O)NC(=O)CNC(=O)[C@H](Cc3ccccc3)NC(=O)[C@H](C(C)C)NC(=O)[C@H](CCCNC(=N)N)NC(=O)[C@H](Cc3ccccc3)NC(=O)[C@H](C(C)C)NC2=O)C[C@H]2O[C@]1(C)n1c3ccccc3c3c4c(c5c6ccccc6n2c5c31)C(=O)NC4` ({Staurosporine-Suc-βAla-βAla-βAla-βAla-βAla-βAla-βAla-βAla-βAla}-CVFRVFGCG-NH2; disulfide 1-8), the Ratio in test [6] is 2.7.

As for `CO[C@@H]1[C@H](N(C)C(=O)CCC(=O)NCCC(=O)NCCC(=O)NCCC(=O)NCCC(=O)NCCC(=O)N[C@H]2CSSC[C@@H](C(=O)NCC(N)=O)NC(=O)CNC(=O)[C@H](Cc3ccccc3)NC(=O)[C@H](C(C)C)NC(=O)[C@H](CCCNC(=N)N)NC(=O)[C@H](Cc3ccccc3)NC(=O)[C@H](C(C)C)NC2=O)C[C@H]2O[C@]1(C)n1c3ccccc3c3c4c(c5c6ccccc6n2c5c31)C(=O)NC4` ({Staurosporine-Suc-βAla-βAla-βAla-βAla-βAla}-CVFRVFGCG-NH2; disulfide 1-8), the Ratio in test [6] came to 2.7.

As to `CO[C@@H]1[C@H](N(C)C(=O)CCC(=O)NCCC(=O)NCCC(=O)NCCC(=O)N[C@H]2CSSC[C@@H](C(=O)NCC(N)=O)NC(=O)CNC(=O)[C@H](Cc3ccccc3)NC(=O)[C@H](C(C)C)NC(=O)[C@H](CCCNC(=N)N)NC(=O)[C@H](Cc3ccccc3)NC(=O)[C@H](C(C)C)NC2=O)C[C@H]2O[C@]1(C)n1c3ccccc3c3c4c(c5c6ccccc6n2c5c31)C(=O)NC4` ({Staurosporine-Suc-βAla-βAla-βAla}-CVFRVFGCG-NH2; disulfide 1-8), the Ratio in test [6] came out at 2.7.

For `CC(C)C[C@H](NC(=O)[C@H](CO)NC(=O)[C@H](C)NC(=O)[C@H](CCCNC(=N)N)NC(=O)[C@H](CCCNC(=N)N)NC(=O)[C@@H](N)CC(C)C)C(=O)NCC(=O)O` [KEMPTIDE], in test [2], the Ki came out at 86 µM and the Km came to 13.3 µM.
